Consider 13 compounds from patent publication US8648045B2, “VDAC1 compositions and methods of use thereof for regulating apoptosis” (Ben Gurion University of the Negev Research and Development …, priority 2005, dated 2014).

pIC50: −log10 of the molar value. Like-named read-outs stand apart in the source and are kept apart here. Peptide text beside a SMILES is read from it.

By IC50 is commonly meant the midpoint of a concentration-inhibition curve. In general, pIC50 refers to −log10 of the IC50, conventionally taken in molar units. Read a low pIC50 as a high IC50.

For one test, the system named is HeLa. Description: Apoptosis induction by various stimuli (acridine orange/ethidium bromide staining). The format is cell-based, human. As for the experimental part: (§1) Cells were plated at a density of 5.4×10^4 cells/cm^2 in 24-well plates, washed once with PBS and placed in serum-free medium. Cells were then incubated with or without RuR or Ru360. Cells were also treated with […] staurosporine (STS) to induce apoptosis and analyzed for viability 3, 5 and 7 hrs after STS addition. Treatments with curcumin (120 μM) or As2O3 (20 μM) were carried out for 48 hrs.
(§2) To determine cell viability, cells were stained with 100 μg/ml acridine orange (AcOr) and 100 μg/ml ethidium bromide (EtBr) in PBS. Cells were centrifuged at 1500×g for 5 min at room temperature and resuspended in 25 μl of complete medium, to which 2 μl of AcOr/EtBr solution were added. The cells were then visualized by fluorescence microscopy (Olympus IX51) and images were recorded on an Olympus DP70 camera, using a SWB filter.
(§3) Cells were incubated with curcumin (120 μM) or As2O3 (20 μM) for 48 hrs, or with STS (1.25 μM) for 7 hrs. Cell viability was analyzed by acridine orange/ethidium Bromide staining. In each independent experiment, approximately 250 cells were counted for each treatment, in which early and late apoptotic cells were also counted. The data shown in table 3 is the mean±S.E.M. (n=3).

Another test deals with Panc. Described as above. In kind it is cell-based, human. As for the experimental part: as §1, §2, §3
A further test concerns Du-145. The test is described as above. The format is cell-based, human. As for the experimental part:
as §1, §2, §3

Another test relates to B-16. The description is as above. The format is cell-based, mouse. As for the experimental part:
as §1, §2, §3

A further test concerns MEC-1 cell line. The format is cell-based, human. The method, then:
(§4) PBMCs (2×10^6 cells/sample) from CLL patients and healthy donors were treated with various concentrations of the peptide Antp-LP4-trp for 90 minutes. Cells were then gently washed once with PBS and stained with propidium iodide (PI) by adding 2.5 μl (1 mg/ml) and immediately analyzed for cell death. The level of cell death, reflected by the percentage of PI-positive cells, was determined by a flow cytometry analysis.
(§5) Preipheral blood mononuclear cells (PMBC) isolated from pateints having chronic lymphocytic leukemia (CLL) and MEC-1 cell lines (human chronic B-cell leukemia) were incubated for 90 min with Peptide N-ANTP (SEQ ID NO:73) at concentrations of 10-40 μM. Cell death was measured by PI staning and FACS analysis.

Test [1] concerns PBMCs isolated from CLL patients. The format is cell-based, human. As for the experimental part: Peripheral blood mononuclear cells (PBMCs) were isolated from venous blood of patients with chronic lymphocytic leukemia (CLL) by Ficoll-Paque PLUS (GE Healthcare, Israel) density gradient centrifugation. After informed consent, venous blood (10 ml) was drawn from CLL patients satisfying diagnostic criteria for CLL or from normal adult donors. Blood was collected into heparin tubes and diluted 1:1 with balance solution (composed of two stock solutions, A and B, in 1:9 ratio, respectively. Solution A contained: D-glucose 1%, CaCl2 5×10^−5M, MgCl2 9.8×10^−4M, KCl 5.4×10^−3M, Tris 0.145M, pH 7.6. Solution B contained NaCl 0.14M. The balance solution was prepared freshly every week. The diluted blood sample was subsequently carefully layered on Ficoll-Paque Plus (10 ml of diluted blood: 15 ml Ficoll) in 50 ml conical tubes. Tubes were centrifuged at 400×g (with minimal acceleration and deceleration) for 40 minutes at 18-20° C. The mononuclear cells fine layer was transferred to a new centrifuge tube. Cells were washed 3 times with balance solution and re-suspended in a culture medium appropriate to the application.
as §4, §5
In ex vivo experiments, peripheral blood mononuclear cells (PBMCs) isolated from healthy individuals or CLL patients were incubated for 90 min with the indicated concentration of the ANTP-LP4-trp peptide. Cell death was assayed by PI staining and FACS analysis (healthy donors, n=34; CLL donors, n=39).

The subject of test [2] is U937 cells. Description: HK-I over-expression protection against apoptotic cell death in double-transfected cells. In kind it is cell-based, human. Conditions: U937 or T-Rex 293 cells stably over-expressing HK-I, mVDAC1-GFP constructs. As for the experimental part:
U937 cells were transfected with pcDNA3.1-HisA or pcDNA3.1-HisA-HK-I (neomycin resistance; provided by Dr. J. E. Wilson, University of Michigan) by electroporation, and grown in complete RPMI 1640 with neomycin ([…]). After 12 days, the selected cells were transfected with pEGFP, pEGFP-mVDAC1 or pEGFP-E72Q-mVDAC1 and were grown in the presence of neomycin ([…]). The viability of double-transfected cells was analyzed during 48 to 76 hr.
The effect of HK-I over-expression on apoptotic cell death of the GFP-tagged version of native and E72Q-mVDAC1 over-expressing cells was examined.
Since VDAC1 overexpression induces cell death, U937 cells (FIG. 4A, 4B) or T-Rex™ 293 human embryonic kidney cells (FIG. 4B) were first transformed to stably over-express HK-I and then transfected with native, E65Q, E72Q, K73L, D77N, N75A, or G67A mutated mVDAC1-GFP. […] This β-loop includes amino acid residues T64 to about N78.

Test [3] has as its system U937 cells. Description: Apoptotic cell death of U937 cells transfected with native or mutated mVDAC1, with/without RuR (acridine orange/ethidium bromide staining). In kind it is cell-based, human. The method, then:
Logarithmically-growing U937 cells were resuspended in RPMI 1640 supplemented with 10% FCS, 100 U/ml penicillin and […] streptomycin at a concentration of 2.5×10^7 cells/ml. Cells were transfected to express rat or murine VDAC1 using the vectors pEGFP, pEGFP-VDAC1, pEGFP-E72Q-mVDAC1, pE-mVDAC1 or pE-E72Q-mVDAC1. Transfection of the U937 cells was performed by electroporation with a single pulse from a Bio-Rad micropulser II with a capacitance extender unit (200 V, […]). Cells were incubated on ice for 10 min before and after transfection, and then resuspended in 20 ml of RPMI 1640 supplemented with 10% FCS, 1 mM l-glutamine, 100 U/ml penicillin and […] streptomycin. […] GFP-positive cells were viewed under a microscope using a blue filter.
as §1
Fifty six (56) hr after transfection, cells were exposed for 20 hr to RuR (1 μM) and cell viability was analyzed using acridine orange/ethidium bromide staining. In each independent experiment, approximately 250 cells were counted for each including early and late apoptotic cells. Data shown in FIG. 5 and Table 2 are the mean±SEM (n=3).

On to `O=[As]O[As]=O` (centres unmarked) [As2O3], for which the “Apoptotic cell death, % of control” value is on record as 24.67 ± 2.65 % of control in the test with HeLa (As2O3 20 μM, 48 hrs); 67.20 ± 3.87 % of control in the test with Panc (As2O3 20 μM, 48 hrs); 6.0 ± 0.80 % of control in the test with Du-145 (As2O3 20 μM, 48 hrs); 15.0 ± 1.99 % of control in the test on B-16 (As2O3 20 μM, 48 hrs).

As to `COc1cc(/C=C/C(=O)CC(=O)/C=C/c2ccc(O)c(OC)c2)ccc1O` [Curcumin, curcumin], the “Apoptotic cell death, % of control” value with HeLa (curcumin 120 μM, 48 hrs) was 36.2 ± 0.70 % of control; in the test on Panc (curcumin 120 μM, 48 hrs), 70.77 ± 4.31 % of control; in the test on Du-145 (curcumin 120 μM, 48 hrs) it was 8.93 ± 0.47 % of control; in the test on B-16 (curcumin 120 μM, 48 hrs), 37.47 ± 2.20 % of control.

Turning to `CN[C@@H]1C[C@H]2O[C@@](C)([C@@H]1OC)n1c3ccccc3c3c4c(c5c6ccccc6n2c5c31)C(=O)NC4` [STS, staurosporine], the “Apoptotic cell death, % of control” value in the test with HeLa (STS 1.25 μM, 7 hrs) is 72.37 ± 1.30 % of control; with Panc (STS 1.25 μM, 7 hrs), 84.90 ± 2.06 % of control; in the test with Du-145 (STS 1.25 μM, 7 hrs), 13.57 ± 4.73 % of control; in the test with B-16 (STS 1.25 μM, 7 hrs) it was 63.12 ± 0.71 % of control.

Turning to `CC(C)C[C@H](NC(=O)[C@H](CC(N)=O)NC(=O)[C@@H](NC(=O)[C@H](C)NC(=O)[C@@H](NC(=O)[C@H](CCC(=O)O)NC(=O)[C@H](CC(C)C)NC(=O)[C@H](CCCCN)NC(=O)[C@H](CCCCN)NC(=O)[C@H](CCC(=O)O)NC(=O)[C@H](Cc1c[nH]c2ccccc12)NC(=O)[C@@H](NC(=O)[C@H](Cc1c[nH]c2ccccc12)NC(=O)[C@H](CO)NC(=O)CNC(=O)CNC(=O)[C@H](CCCNC(=N)N)NC(=O)[C@H](CCCNC(=N)N)NC(=O)[C@H](CCCNC(=N)N)NC(=O)[C@H](CCC(N)=O)NC(=O)[C@H](CCCNC(=N)N)NC(=O)[C@H](CCCNC(=N)N)NC(=O)[C@H](CCCCN)NC(=O)[C@H](CCCCN)NC(=O)[C@@H](N)CCCNC(=N)N)[C@@H](C)O)[C@@H](C)O)C(C)C)C(=O)N[C@@H](C)C(=O)N[C@@H](Cc1c[nH]c2ccccc12)C(=O)N[C@H](C(=O)N[C@@H](C)C(=O)NCC(=O)N[C@@H](CC(N)=O)C(=O)N[C@@H](CO)C(=O)N[C@@H](CC(N)=O)C(=O)N[C@@H](CCCCN)C(=O)N[C@@H](Cc1c[nH]c2ccccc12)C(=O)N[C@H](C(=O)N[C@@H](Cc1c[nH]c2ccccc12)C(=O)N[C@@H](CCCCN)C(=O)O)[C@@H](C)O)[C@@H](C)O` [TAT-LP4-trp] (H-RKKRRQRRRGGSWTWEKKLETAVNLAWTAGNSNKWTWK-OH; N-terminus and C-terminus assumed), the 50% inhibitory concentration (IC50) in the test on MEC-1 cell line (peptide concentration required to induce apoptosis in 50% of the cells, MEC-1, read-out: IC50 μM MEC-1) was 6 to 7 µM; in test [1] (peptide concentration required to induce apoptosis in 50% of the cells, PBMC from CLL patients, read-out: IC50 μM CLL) it was 3.5 to 4 µM.

With `CC[C@H](C)[C@H](NC(=O)[C@H](C)NC(=O)[C@@H](N)Cc1c[nH]cn1)C(=O)N[C@@H](Cc1ccc(O)cc1)C(=O)N1CCC[C@H]1C(=O)N[C@@H](CCCNC(=N)N)C(=O)N[C@@H](Cc1c[nH]cn1)C(=O)N[C@@H](CO)C(=O)N[C@@H](Cc1c[nH]c2ccccc12)C(=O)N[C@H](C(=O)N[C@@H](Cc1c[nH]c2ccccc12)C(=O)N[C@@H](CCC(=O)O)C(=O)N[C@@H](CCCCN)C(=O)N[C@@H](CCCCN)C(=O)N[C@@H](CC(C)C)C(=O)N[C@@H](CCC(=O)O)C(=O)N[C@H](C(=O)N[C@@H](C)C(=O)N[C@H](C(=O)N[C@@H](CC(N)=O)C(=O)N[C@@H](CC(C)C)C(=O)N[C@@H](C)C(=O)N[C@@H](Cc1c[nH]c2ccccc12)C(=O)N[C@H](C(=O)N[C@@H](C)C(=O)NCC(=O)N[C@@H](CC(N)=O)C(=O)N[C@@H](CO)C(=O)N[C@@H](CC(N)=O)C(=O)N[C@@H](CCCCN)C(=O)N[C@@H](Cc1c[nH]c2ccccc12)C(=O)N[C@H](C(=O)N[C@@H](Cc1c[nH]c2ccccc12)C(=O)N[C@@H](CCCCN)C(=O)O)[C@@H](C)O)[C@@H](C)O)C(C)C)[C@@H](C)O)[C@@H](C)O` [Tf-LP4-trp], the pIC50 with MEC-1 cell line is 5.52 to 5.62; in test [1], 5.70 to 5.82.

For the compound “D77N-mVDAC1: VDAC1 polypeptide variant D77N [Peptide D77N-mVDAC1]”, the “protective effect of HK-I over-expression against cell death induced by mVDAC1 over-expression” value (“protective effect … by mVDAC1 over-expression” below) in the test on U937 cells [2] was “no protective effect”.

Take “E65Q-mVDAC1: VDAC1 polypeptide variant E65Q [Peptide E65Q-mVDAC1]”: the “protective effect … by mVDAC1 over-expression” value with U937 cells [2] is recorded as “no protective effect”.

In the case of “E72Q-mVDAC1: VDAC1 polypeptide variant E72Q [Peptide E72Q-mVDAC1]”, in the test on U937 cells [2], the “protective effect … by mVDAC1 over-expression” value is listed as “no protective effect”.

For the compound “E72Q-mVDAC-GFP: GFP-tagged E72Q mVDAC1 variant”, the “% of protection” value with U937 cells [3] (protection by RuR (1 μM) against apoptosis of transfected U937 cells) was determined as 0%. The “Apoptotic cells, % −RuR” value in the test on U937 cells [3] (transfected U937 cells, without RuR, mean±SEM (n=3)) turned out to be 71.9 ± 4.7%. Also, the “Apoptotic cells, % +RuR” value in the test with U937 cells [3] (transfected U937 cells, 56 hr after transfection exposed 20 hr to RuR (1 μM), mean±SEM (n=3)) is on record as 71.6 ± 4.4%.

As for “E202Q-mVDAC1: VDAC1 polypeptide variant E202Q [Peptide E202Q-mVDAC1]”, in the test with U937 cells [2], the “protective effect … by mVDAC1 over-expression” value is “no protective effect”.

For the compound “G67A-mVDAC1: VDAC1 polypeptide variant G67A [Peptide G67A-mVDAC1]”, in the test with U937 cells [2], the “protective effect … by mVDAC1 over-expression” value is “dramatically reduced”.

As to “K73L-mVDAC1: VDAC1 polypeptide variant K73L [Peptide K73L-mVDAC1]”, in the test on U937 cells [2], the “protective effect … by mVDAC1 over-expression” value is reported as “no protective effect”.

Turning to “N75A-mVDAC1: VDAC1 polypeptide variant N75A [Peptide N75A-mVDAC1]”, the “protective effect … by mVDAC1 over-expression” value with U937 cells [2] is listed as “dramatically reduced”.
